Test results from patent publication US20260216174A1, “TREATMENT OF ER+ BREAST CANCER COMPRISING HOMOLOGOUS RECOMBINATION DEFICIENCY USING PARG INHIBITOR” (IDEAYA BIOSCIENCES, INC., priority 2023, published 2026).

How the values were obtained:
Format in all cases: cell-based
HCC202 = assay: Cellular antiproliferative response, Assay 2 (nuclear dye intensity); settings: 240 h; HCC202, HR mutant BRCA2, Assay 2, 10-day incubation; read-out: Log10 (IC50) (converted)
Description: Compound A was tested in a cell line panel. Cell lines were grown in RPMI 1640, 10% FBS, 2 mM L-alanyl-L-glutamine, 1 mM Na pyruvate, or a special medium. Cells were seeded into 384-well plates and incubated in a humidified atmosphere of 5% CO2 at 37° C. The following day, Compound A was added by serial dilution in half-log steps from the highest test concentration of 30 μM and assayed over ten concentrations. A time zero untreated cell plate was also generated. At seven days post-seeding, the growth media were replaced, and the plates were re-dosed with the test compound. After a 10-day incubation period, cells were fixed and stained with a fluorescent nuclear dye. Automated fluorescence microscopy was carried out using a Molecular Devices ImageXpress Micro XL high-content imager, and images were collected with a 4× objective. 16-bit TIFF images were acquired and analyzed with MetaXpress 5.1.0.41 software.
Cell proliferation effects of Compound A was measured using the fluorescent intensity of the incorporated nuclear dye as a percent of the control (POC), where POC=(Ix/I0)×100. Ix=nuclear intensity at concentration x and I0=average nuclear intensity of the untreated vehicle wells. Cellular IC50 was calculated using nonlinear regression to a sigmoidal single-site dose response model. Curve fitting, calculations, and report generation was performed using a custom data reduction engine and MathIQ based software (AIM).

BT-20 = assay: Cellular antiproliferative response, Assay 1 (nuclear counts); settings: Homo sapiens; BT-20, Wild Type, Assay 1, 5 population doublings; read-out: Log10 (IC50) (converted)
Description: (§1) Compound A was tested in a cell line panel. Cell lines were obtained from several different sources such as the American Type Culture Collection, Korean Cell Line Bank and Japanese Collection of Research Bioresources Cell Bank and cultured in the media as recommended by the source cell banks. All cell lines were grown at 37° C. at 5% CO2 and were passaged once or twice weekly with 0.25% Trypsin-EDTA (Fisher Scientific #25200056) and re-plated in 75 cm^2 culture flasks (Corning #3814).
(§2) The cell lines were plated in 96 well plates (Corning #3904) at density of 1000 cells/well. DMSO dissolved Compound A was then added using the TECAN liquid dispenser to generate a 9-point dose curve with a 3-fold dilution and 10 μM starting, top concentration. After 5 population doublings, the cell lines were treated with 5 μM of Vybrant DyeCycle Green (Life Technologies #V35004), incubated for 60 minutes and imaged using the Incucyte® S3 system to determine the nuclear counts. For all cell lines, the nuclear counts were normalized to the DMSO treated wells and the IC50 was determined using the standard four parametric dose response equation in GraphPad Prism Software.

MDA-MB-453 = assay: as above; settings: Homo sapiens; MDA-MB-453, Wild Type, Assay 1, 5 population doublings; read-out: Log10 (IC50) (converted)
Description: as §1, §2

CAMA-1 = assay: as above; settings: Homo sapiens; CAMA-1, Wild Type, Assay 1, 5 population doublings; read-out: Log10 (IC50) (converted)
Description: as §1, §2

MDA-MB-415 = assay: as above; settings: Homo sapiens; MDA-MB-415, Wild Type, Assay 1, 5 population doublings; read-out: Log10 (IC50) (converted)
Description: as §1, §2

T-47D = assay: as above; settings: Homo sapiens, T47D, Wild Type, Assay 1, 5 population doublings, read-out: Log10 (IC50) (converted)
Description: as §1, §2

BT-549 = assay: as above; settings: Homo sapiens; BT-549, Wild Type, Assay 1, 5 population doublings; read-out: Log10 (IC50) (converted)
Description: as §1, §2

KPL-1 = assay: as above; settings: KPL-1, Wild Type, Assay 1, 5 population doublings; read-out: Log10 (IC50) (converted)
Description: as §1, §2

MDA-MB-231 = assay: as above; settings: Homo sapiens; MDA-MB-231, Wild Type, Assay 1, 5 population doublings; read-out: Log10 (IC50) (converted)
Description: as §1, §2

Hs 578T = assay: as above; settings: Homo sapiens, Wild Type, Assay 1, 5 population doublings, read-out: Log10 (IC50) (converted)
Description: as §1, §2

MCF7 = assay: as above; settings: Homo sapiens; MCF7, Wild Type, Assay 1, 5 population doublings; read-out: Log10 (IC50) (converted)
Description: as §1, §2

SK-BR-3 = assay: as above; settings: Homo sapiens; SK-BR-3, Wild Type, Assay 1, 5 population doublings; read-out: Log10 (IC50) (converted)
Description: as §1, §2

IC50 (HCC202): 0.64 µM | IC50 (BT-20): 2.41 µM | IC50 (MDA-MB-453): 2.02 µM | IC50 (MDA-MB-415): 2.83 µM | IC50 (T-47D): 3.09 µM | IC50 (BT-549): 0.983 µM | IC50 (MDA-MB-231): 0.85 µM | IC50 (MCF7): 2.38 µM | IC50 (SK-BR-3): 0.131 µM
Compound: C[C@H]1CN(c2cc(S(=O)(=O)NC3(C)CC3)cc3c2cnn3-c2nnc(C(F)F)s2)C[C@H](C)N1 [Compound A, 1-(5-(difluoromethyl)-1,3,4-thiadiazol-2-yl)-4-((3S,5S)-3,5-dimethylpiperazin-1-yl)-N-(1-methylcyclopropyl)-1H-indazole-6-sulfonamide]
IC50 (CAMA-1): 0.844 µM | IC50 (KPL-1): 0.431 µM | IC50 (Hs 578T): 3 µM
